Measurements published in patent publication JP2005330229A, “4−トリフルオロメトキシフェニル(オキシ)エチルアミン誘導体及び抗菌剤” (Ube Industries Ltd, priority 2004, dated 2005).

Test system: black mold Aspergillus niger (クロカビ)
Assay: Antimicrobial test, black mold (PDA plate, colony diameter)
Type: cell-based
Conditions: PDA medium, final concentration 500 mg/L, 25℃, 4 days; for inhibition at 500 µg/mL: 96 h, read-out: inhibition rate

C[S+]([O-])c1ncccc1C(=O)NCCOc1ccc(OC(F)(F)F)cc1 (centres unmarked) [化合物番号5, 2−メチルスルフィニル−N−(2−(4−トリフルオロメトキシフェノキシ)エチル)ニコチン酸アミド]
inhibition at 500 µg/mL: 50 to 69%

CS(=O)(=O)c1ncccc1C(=O)NCCOc1ccc(OC(F)(F)F)cc1 [化合物番号4, 2−メチルスルホニル−N−(2−(4−トリフルオロメトキシフェノキシ)エチル)ニコチン酸アミド]
inhibition at 500 µg/mL: 70 to 89%

N−(2−(4−トリフルオロメトキシフェノキシ)エチル)−9−トリフルオロメチル−ジピリド[2,3−b:3’,2’−f]1,4−チアゼピン−6(5H)−オン [化合物番号41]
inhibition rate: C (C:50〜69%阻害)

2−エトキシ−N−(2−(4−トリフルオロメトキシフェノキシ)エチル)ニコチン酸アミド [化合物番号12]
inhibition rate: B (B:70〜89%阻害)

O=C(NCCc1ccc(OC(F)(F)F)cc1)c1ccncc1 [化合物番号33, N−(2−(4−トリフルオロメトキシフェニル)エチル)イソニコチン酸アミド]
inhibition at 500 µg/mL: 70 to 89%
